The record followed here is US6897230B2, “Bicyclo[3/1/0] hexane containing oxazolidinone antibiotics and derivatives thereof” (Kyorin Pharmaceutical Co., Ltd., priority 2001, dated 2005).

SMILES strings stand for the structures. In brackets after ≈: the same amount, converted by molar mass. Counter-ions that a name gives are not always drawn.

Usually melting point stands for the temperature, or range, at which the solid turns liquid. In general, MIC refers to the least concentration at which growth counts as inhibited.

Data set [1] concerns Staphylococcus aureus CR (chloramphenicol resistant). Put plainly: MIC, agar dilution method. The class given is cell-based. As to conditions: Mueller-Hinton agar, 35 C, 24 hours. The procedure:
(§1) The following in vitro results were obtained based on an agar dilution method except for C. pneumoniae. The activity is presented as the minimum inhibitory concentration (MIC).
(§2) S. aureus and M. catarrhalis were tested on Mueller-Hinton agar, using an approximate inoculum of 1×10^4 cfu/spot an incubation temperature of 35 C. for 24 hours. The MIC was defined as the lowest concentration at which no visible bacterial growth was observed.
(In general: In agar dilution, organisms are placed on agar that contains the substance at set levels.)

For data set [2], the system named is Staphylococcus aureus Smith. Put plainly: MIC, agar dilution method. Conditions: Mueller-Hinton agar, 35 C, 24 hours. The class given is cell-based. The procedure:
as §1, §2

Data set [3] has as its system Staphylococcus aureus MR (methicillin resistant). In words: MIC, agar dilution method. It counts as cell-based. Conditions: Mueller-Hinton agar, 35 C, 24 hours. As for the experimental part: as §1, §2
Data set [4] concerns Chlamydia pneumoniae ATCC VR-1360. In words: MIC, inclusion formation in infected HeLa 229 cells. Conditions: ATCCVR1360, 72 hours, lowest concentration with no inclusion. It counts as cell-based. The procedure:
as §1
C. pneumoniae was tested using minimum essential medium supplemented with 10% heat-inactivated fetal bovine serum, 2 mM L-glutamine, […] cycloheximide and non essential amino acid. HeLa 229 cells were inoculated with 10^4 inclusion-forming units of C. pneumoniae strain per mL. Infected cells were incubated with test compounds in complete medium at 35C in an atmosphere of 5% CO2 for 72 hours. […] The MIC was defined as the lowest concentration at which no inclusion was observed.

In data set [5] the test system is Streptococcus pneumoniae IID553. In words: MIC, agar dilution method. It counts as cell-based. Conditions: Mueller-Hinton agar with 5% defibrinated horse blood, 5% CO2, 24 hours. The procedure:
as §1
(§3) Streptococci and enterococci were tested on Mueller-Hinton agar supplemented with 5% defibrinated horse blood, using an approximate inoculum of 1×10^4 cfu/spot an incubation temperature of 35° C. in an atmosphere of 5% CO2 for 24 hours. The MIC was defined as the lowest concentration at which no visible bacterial growth was observed.

Data set [6] has as its system Streptococcus pyogenes IID692. In words: MIC, agar dilution method. As to conditions: Mueller-Hinton agar with 5% defibrinated horse blood, 5% CO2, 24 hours. The class given is cell-based. As for the experimental part: as §1, §3
The subject of data set [7] is Streptococcus pneumoniae PRQR (penicillin resistant, quinolone resistant). Put plainly: MIC, agar dilution method. As to conditions: Mueller-Hinton agar with 5% defibrinated horse blood, 5% CO2, 24 hours. The class given is cell-based. As for the experimental part:
as §1, §3

The subject of data set [8] is Enterococcus faecium VRQR (vancomycin resistant, quinolone resistant). In words: MIC, agar dilution method. The class given is cell-based. Conditions: Mueller-Hinton agar with 5% defibrinated horse blood, 5% CO2, 24 hours. The procedure: as §1, §3
The subject of data set [9] is Moraxella catarrhalis ATCC25238. Put plainly: MIC, agar dilution method. It counts as cell-based. As to conditions: Mueller-Hinton agar, 35 C, 24 hours. The procedure:
as §1, §2

In turn, `CC(=O)NC[C@H]1CN(c2ccc(C3=C[C@@H]4[C@@H](N)[C@@H]4C3)c(F)c2)C(=O)O1` (as salt: hydrochloride) [Example 50, N-[5(S)-3-[4-[(1α,5α,6α)-6-Aminobicyclo[3.1.0]hex-2-en-3-yl]-3-fluorophenyl]-2-oxooxazolidin-5-ylmethyl]acetamide Hydrochloride] displayed a melting point of 215 to 220 °C.

Consider `CC(=O)NC[C@H]1CN(c2ccc(N3C[C@@H]4[C@@H](N)[C@@H]4C3)c(F)c2)C(=O)O1` [Example 8, N-[5(S)-3-[4-[(1α,5α,6α)-6-Amino-3-azabicyclo[3.1.0]hexan-3-yl]-3-fluorophenyl]-2-oxooxazolidin-5-ylmethyl]acetamide], for which the MIC worked out at 4 µg/mL (≈ 11.5 µM) in data set [1]; 0.5 µg/mL (≈ 1.44 µM) in data set [2]; 1 µg/mL (≈ 2.87 µM) in data set [3]; 0.5 µg/mL (≈ 1.44 µM) in data set [4]; 1 µg/mL (≈ 2.87 µM) in data set [5]; 0.5 µg/mL (≈ 1.44 µM) in data set [6]. Moreover, the MIC is 1 µg/mL (≈ 2.87 µM) in data set [7] and 2 µg/mL (≈ 5.74 µM) in data set [8].

In the case of `CC(=O)NC[C@H]1CN(c2ccc(N3C[C@@H]4[C@@H](C=O)[C@@H]4C3)c(F)c2)C(=O)O1` [Example 22, N-[5(S)-3-[3-Fluoro-4-[(1α,5α,6α)-6-formyl-3-azabicyclo[3.1.0]hexan-3-yl]phenyl]-2-oxooxazolidin-5-ylmethyl]acetamide], the MIC in data set [9] is 2 µg/mL (≈ 5.53 µM); in data set [1], 0.5 µg/mL (≈ 1.38 µM); in data set [2], 0.06 µg/mL (≈ 0.166 µM); in data set [3], 0.016 µg/mL (≈ 0.0443 µM); in [5] it was 0.5 µg/mL (≈ 1.38 µM); in data set [6], 0.5 µg/mL (≈ 1.38 µM). For the same compound, the MIC in data set [7] and in data set [8] was 0.5 µg/mL (≈ 1.38 µM) each time.

`CC(=O)NC[C@H]1CN(c2ccc(N3C[C@@H]4[C@@H](/C=N/O)[C@@H]4C3)c(F)c2)C(=O)O1` [Example 41, (E)-N-[5(S)-3-[3-Fluoro-4-[(1α,5α,6α)-6-[(hydroxyimino)methyl]-3-azabicyclo[3.1.0]hexan-3-yl]phenyl]-2-oxooxazolidin-5-ylmethyl]acetamide]: the minimum inhibitory concentration (MIC) in data set [9] amounted to 4 µg/mL (≈ 10.6 µM); in data set [1], 0.5 µg/mL (≈ 1.33 µM); in data set [2], 0.06 µg/mL (≈ 0.159 µM); in data set [3], 0.06 µg/mL (≈ 0.159 µM); in [5], 0.5 µg/mL (≈ 1.33 µM); in data set [6] it was 0.5 µg/mL (≈ 1.33 µM). In addition, the minimum inhibitory concentration (MIC) in data set [7] and in [8] was 0.5 µg/mL (≈ 1.33 µM) in each case.

As to `CC(=O)NC[C@H]1CN(c2ccc(N3C[C@@H]4[C@@H](C#N)[C@@H]4C3)c(F)c2)C(=O)O1` [Example 46, N-[5(S)-3-[4-[(1α,5α,6α)-6-Cyano-3-azabicyclo[3.1.0]hexan-3-yl]-3-fluorophenyl]-2-oxooxazolidin-5-ylmethyl]acetamide], the MIC in [9] came out at 2 µg/mL (≈ 5.58 µM); in data set [1] it was 1 µg/mL (≈ 2.79 µM); in data set [2], 0.25 µg/mL (≈ 0.698 µM); in [3], 0.25 µg/mL (≈ 0.698 µM); in data set [5], 0.5 µg/mL (≈ 1.4 µM); in data set [6] it was 0.25 µg/mL (≈ 0.698 µM). The minimum inhibitory concentration (MIC) was found to be 0.25 µg/mL (≈ 0.698 µM) in data set [7] and 0.5 µg/mL (≈ 1.4 µM) in data set [8].

As to `CC(=O)NC[C@H]1CN(c2ccc(N3CCOCC3)c(F)c2)C(=O)O1` [Linezolid, reference compound], the MIC stood at 4 µg/mL (≈ 11.9 µM) in [9]; 16 µg/mL (≈ 47.4 µM) in [1]; 1 µg/mL (≈ 2.96 µM) in data set [2]; 1 µg/mL (≈ 2.96 µM) in data set [3]; 8 µg/mL (≈ 23.7 µM) in [4]; 2 µg/mL (≈ 5.93 µM) in data set [5]. The minimal inhibitory concentration (MIC) was 1 µg/mL (≈ 2.96 µM) in data set [6], 1 µg/mL (≈ 2.96 µM) in data set [7] and 2 µg/mL (≈ 5.93 µM) in [8].
